We go through 13 compounds from ChEMBL document CHEMBL1130995, “Anti-AIDS agents. 32. Synthesis and anti-HIV activity of betulin derivatives” (Bioorg Med Chem Lett, 1998).

Experiment [1] concerns H9. Briefly: Compound was evaluated for anti-HIV activity in H9 lymphocytes. In kind it is functional, cell-based. To be noted: Homo sapiens.
The subject of experiment [2] is H9. Briefly: Compound was evaluated for cytotoxicity in H9 lymphocytes. To be noted: Homo sapiens. It counts as functional, cell-based.

In the experiment on H9 [1], `Cc1cn([C@H]2C[C@H](N=[N+]=[N-])[C@@H](CO)O2)c(=O)[nH]c1=O` [ZIDOVUDINE] had an EC50 of 0.015 µM. Turning to `C=C(C)[C@@H]1CC[C@]2(COC(=O)CC(C)(C)CC(=O)O)CC[C@]3(C)[C@H](CC[C@@H]4[C@@]5(C)CC[C@H](O)C(C)(C)[C@@H]5CC[C@]43C)[C@@H]12`, the midpoint of inhibition with H9 [2], the IC50, lay at 28.2 µM. In the experiment with H9 [1], this compound displayed an EC50 of 3.6 µM. Turning to `C=C(C)[C@@H]1CC[C@]2(COC(=O)CC(C)(C)CC(=O)O)CC[C@]3(C)[C@H](CC[C@@H]4[C@@]5(C)CC=CC(C)(C)[C@@H]5CC[C@]43C)[C@@H]12`, the IC50 in the experiment on H9 [2] turned out to be 28.3 µM. In addition, a half-maximal response with H9 [1] (EC50) required 5.4 µM. Taken in the same sequence, the figures for `CC(C)[C@@H]1CC[C@]2(COC(=O)CC(C)(C)CC(=O)O)CC[C@]3(C)[C@H](CC[C@@H]4[C@@]5(C)CC[C@H](OC(=O)CC(C)(C)CC(=O)O)C(C)(C)[C@@H]5CC[C@]43C)[C@@H]12` were 10.6 µM and 0.0047 µM. Consider `C=C(C)[C@@H]1CC[C@]2(COC(=O)CC3(CC(=O)O)CCCC3)CC[C@]3(C)[C@H](CC[C@@H]4[C@@]5(C)CC[C@H](OC(=O)CC6(CC(=O)O)CCCC6)C(C)(C)[C@@H]5CC[C@]43C)[C@@H]12`, for which it took 20.5 µM to reach half-maximal inhibition in the experiment with H9 [2] (IC50). In the experiment on H9 [1], this compound displayed an EC50 of 0.077 µM. In turn, `C=C(C)[C@@H]1CC[C@]2(CO)CC[C@]3(C)[C@H](CC[C@@H]4[C@@]5(C)CC[C@H](O)C(C)(C)[C@@H]5CC[C@]43C)[C@@H]12` [BETULIN] registered an IC50 in the experiment with H9 [2] of 43.7 µM. This compound also gave an EC50 in the experiment on H9 [1] of 23 µM. In the experiment with H9 [2], `C=C(C)[C@@H]1CC[C@]2(COC(=O)CC(C)(C)CC(=O)O)CC[C@]3(C)[C@H](CC[C@@H]4[C@@]5(C)CC[C@H](OC(=O)CC(C)(C)CC(=O)O)C(C)(C)[C@@H]5CC[C@]43C)[C@@H]12` gave an IC50 of 14.2 µM. In the experiment with H9 [1], this compound yielded an EC50 of 0.00066 µM. For the compound `CC(C)[C@@H]1CC[C@]2(COC(=O)CC3(CC(=O)O)CCCC3)CC[C@]3(C)[C@H](CC[C@@H]4[C@@]5(C)CC[C@H](OC(=O)CC6(CC(=O)O)CCCC6)C(C)(C)[C@@H]5CC[C@]43C)[C@@H]12`, the IC50 with H9 [2] worked out at 21.6 µM. The same compound displayed an EC50 in the experiment with H9 [1] of 0.58 µM. On to `C=C(C)[C@@H]1CC[C@]2(COC(=O)CC(C)(C)CC(=O)O)CC[C@]3(C)[C@H](CC[C@@H]4[C@@]5(C)CCC(=O)C(C)(C)[C@@H]5CC[C@]43C)[C@@H]12`, for which, in the experiment with H9 [2], the IC50 is 29.2 µM. Moreover, in the experiment with H9 [1], the EC50 was 10 µM. The compound `C=C(C)[C@@H]1CC[C@]2(CO)CC[C@]3(C)[C@H](CC[C@@H]4[C@@]5(C)CC=CC(C)(C)[C@@H]5CC[C@]43C)[C@@H]12` registered an IC50 in the experiment on H9 [2] of 31.9 µM. For the same compound, in the experiment with H9 [1], the EC50 is 11.9 µM. On to `C=C(C)[C@@H]1CC[C@]2(C(=O)O)CC[C@]3(C)[C@H](CC[C@@H]4[C@@]5(C)CC[C@H](OC(=O)CC(C)(C)CC(=O)O)C(C)(C)[C@@H]5CC[C@]43C)[C@@H]12`, for which, in the experiment with H9 [1], a half-maximal effect (EC50) was put at 0.0023 µM. This lies in the single-digit nanomolar range. As to `CCC(C)(CC(=O)O)CC(=O)OC[C@]12CC[C@@H](C(C)C)[C@@H]1[C@H]1CC[C@@H]3[C@@]4(C)CC[C@H](OC(=O)CC(C)(CC)CC(=O)O)C(C)(C)[C@@H]4CC[C@@]3(C)[C@]1(C)CC2` (some centres undefined), the IC50 in the experiment with H9 [2] was found to be 18.7 µM. Moreover, the EC50 with H9 [1] was determined as 0.075 µM. For the compound `C=C(C)[C@@H]1CC[C@]2(COC(=O)CC(C)(CC)CC(=O)O)CC[C@]3(C)[C@H](CC[C@@H]4[C@@]5(C)CC[C@H](OC(=O)CC(C)(CC)CC(=O)O)C(C)(C)[C@@H]5CC[C@]43C)[C@@H]12` (some centres undefined), the IC50 in the experiment on H9 [2] worked out at 18.4 µM. The compound also came in with an EC50 in the experiment with H9 [1] of 0.0053 µM.
